# pKd: −log10 of the molar value.
# Target: T1, SmaR (Serratia marcescens, UniProt Q14RS3)
# T1 construct: pure recombinant protein
# Experiment: microscale thermophoresis
# Type: binding
# T1 sequence (Q14RS3 1-248): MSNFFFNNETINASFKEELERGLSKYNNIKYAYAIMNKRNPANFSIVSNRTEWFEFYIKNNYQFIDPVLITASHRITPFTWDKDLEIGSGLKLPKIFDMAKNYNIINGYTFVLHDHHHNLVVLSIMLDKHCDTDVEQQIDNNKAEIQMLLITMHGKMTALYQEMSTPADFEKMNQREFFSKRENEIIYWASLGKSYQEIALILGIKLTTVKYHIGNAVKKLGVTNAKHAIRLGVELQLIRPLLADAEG
compound,measurement,value
"Cc1ccc(/C=C/[N+](=O)[O-])cc1 [compound 28, (E)‐1‐methyl‐4‐(2‐nitrovinyl)benzene]",pKd,4.41
